Measurements as given in US10829481B2, “Benzimidazole derivatives as modulators of ROR-gamma” (Vitae Pharmaceuticals, LLC, priority 2016, dated 2020).

Columns and labels:
[1] = molecular target: recombinant RORγ Ligand Binding Domain (LBD) protein (Homo sapiens (Human), UniProt P51449); test: Radio-Ligand RORγ Binding Assay (Assay 1); details: competition with 25-hydroxy [26,27-3H]-cholesterol, SPA
Method in brief: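 His-GST-fused RORγ ligand-binding domain (24 nM solution) competed between compounds and tritiated 25-hydroxycholesterol (8.6 nM solution), read by SPA after brief rt incubations in pH 7.4 HEPES/glycerol/detergent buffer. Four-parameter curve fitting gave IC50 at inflection, converted to Ki using radioligand concentration and KD.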

[2] = molecular target: full-length RORγt in Jurkat cells (Homo sapiens (Human), UniProt P51449); test: RORγt 5×RORE Assay in Jurkat Cells (Assay 2); assay type: cell-based; details: 5×RORE Nanoluc luciferase reporter
Sequence of full-length RORγt in Jurkat cells (P51449 other isoform, or with tags, fused parts or gaps): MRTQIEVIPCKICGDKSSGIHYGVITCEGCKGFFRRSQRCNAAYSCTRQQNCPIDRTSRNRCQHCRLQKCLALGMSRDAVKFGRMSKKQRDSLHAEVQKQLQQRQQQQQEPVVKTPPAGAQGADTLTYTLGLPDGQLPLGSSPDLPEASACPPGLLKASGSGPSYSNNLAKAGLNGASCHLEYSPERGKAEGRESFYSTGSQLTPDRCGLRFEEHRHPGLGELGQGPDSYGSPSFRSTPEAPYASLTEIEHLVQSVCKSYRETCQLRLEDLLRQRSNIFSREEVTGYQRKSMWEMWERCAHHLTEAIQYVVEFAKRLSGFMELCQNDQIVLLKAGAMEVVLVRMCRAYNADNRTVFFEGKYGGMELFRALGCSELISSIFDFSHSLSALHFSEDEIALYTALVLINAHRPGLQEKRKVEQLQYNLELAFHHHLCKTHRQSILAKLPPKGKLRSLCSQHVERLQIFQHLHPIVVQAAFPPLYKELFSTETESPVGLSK

Sequence of recombinant RORγ Ligand Binding Domain (LBD) protein (P51449 269-508): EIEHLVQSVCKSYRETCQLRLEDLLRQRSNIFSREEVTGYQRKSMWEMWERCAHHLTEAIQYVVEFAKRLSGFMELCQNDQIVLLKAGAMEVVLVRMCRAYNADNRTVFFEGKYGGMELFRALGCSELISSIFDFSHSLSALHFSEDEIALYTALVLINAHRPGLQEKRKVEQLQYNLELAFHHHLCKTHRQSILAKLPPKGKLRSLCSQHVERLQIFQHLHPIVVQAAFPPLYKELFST

Compound | Ki [1] [nM] | IC50 [2] [nM]
CCS(=O)(=O)c1ccc(CNC(=O)c2ccc3c(c2)nc(C2CC2)n3Cc2cccc(OC(F)(F)F)c2)cc1 [I-109, 2-cyclopropyl-N-(4-(ethylsulfonyl)benzyl)-1-(3-(trifluoromethoxy)benzyl)-1H-benzo[d]imidazole-5-carboxamide] | < 100 | < 100
CCS(=O)(=O)c1ccc(CNC(=O)c2ccc3c(c2)nc(C2CC2)n3Cc2cccc(OC(F)F)c2)cc1 [I-113, 2-cyclopropyl-1-(3-(difluoromethoxy)benzyl)-N-(4-(ethylsulfonyl)benzyl)-1H-benzo[d]imidazole-5-carboxamide] | < 100 | < 100
CCS(=O)(=O)c1ccc(CNC(=O)c2ccc3c(c2)nc(C2CC2)n3Cc2cc(OC)cc(OC(F)(F)F)c2)cc1 [I-115, 2-cyclopropyl-N-(4-(ethylsulfonyl)benzyl)-1-(3-methoxy-5-(trifluoromethoxy)benzyl)-1H-benzo[d]imidazole-5-carboxamide] | < 100 | < 100
CCS(=O)(=O)c1ccc(CNC(=O)c2ccc3c(c2)nc(C2CC2)n3[C@@H](C)c2cccc3c2OC(F)(F)O3)cc1 [I-116, (S)-2-cyclopropyl-1-(1-(2,2-difluorobenzo[d][1,3]dioxol-4-yl)ethyl)-N-(4-(ethylsulfonyl)benzyl)-1H-benzo[d]imidazole-5-carboxamide] | < 100 | < 100
CCS(=O)(=O)c1ccc(CNC(=O)c2ccc3c(c2)nc(C2CC2)n3Cc2cccc3c2OC(C)(C)C3)cc1 [I-118, 2-cyclopropyl-1-((2,2-dimethyl-2,3-dihydrobenzofuran-7-yl)methyl)-N-(4-(ethylsulfonyl)benzyl)-1H-benzo[d]imidazole-5-carboxamide] | < 100 | > 1000
CCS(=O)(=O)c1ccc(CNC(=O)c2ccc3c(c2)nc(C2CC2)n3Cc2cccc(OC)c2OC)cc1 [I-119, 2-cyclopropyl-1-(2,3-dimethoxybenzyl)-N-(4-(ethylsulfonyl)benzyl)-1H-benzo[d]imidazole-5-carboxamide] | < 100 | < 100
O=C(O)CC1CCC(CNC(=O)c2ccc3c(c2)nc(C(F)(F)F)n3Cc2cccc3c2OC(F)(F)O3)CC1 (centres unmarked) [I-120, 2-(4-((1-((2,2-difluorobenzo[d][1,3]dioxol-4-yl)methyl)-2-(trifluoromethyl)-1H-benzo[d]imidazole-5-carboxamido)methyl)cyclohexyl)acetic acid] | < 100 | 100 to 1000
N#Cc1ccc([C@H](CO)NC(=O)c2ccc3c(c2)nc(C(F)(F)F)n3Cc2cccc3c2OC(F)(F)O3)cc1 [I-122, (R)-N-(1-(4-cyanophenyl)-2-hydroxyethyl)-1-((2,2-difluorobenzo[d][1,3]dioxol-4-yl)methyl)-2-(trifluoromethyl)-1H-benzo[d]imidazole-5-carboxamide] | < 100 | < 100
CCS(=O)(=O)c1ccc([C@H](CO)NC(=O)c2ccc3c(c2)nc(C(F)(F)F)n3Cc2cccc3c2OC(F)(F)O3)c(F)c1 [I-123, (R)-1-((2,2-difluorobenzo[d][1,3]dioxol-4-yl)methyl)-N-(1-(4-(ethylsulfonyl)-2-fluorophenyl)-2-hydroxyethyl)-2-(trifluoromethyl)-1H-benzo[d]imidazole-5-carboxamide] | < 100 | < 100
COc1cc(Cn2c(C(F)(F)F)nc3cc(C(=O)NCc4ccc(S(=O)(=O)CCO)cc4)ccc32)cc(OC)c1 [I-124, 1-(3,5-dimethoxybenzyl)-N-(4-((2-hydroxyethyl)sulfonyl)benzyl)-2-(trifluoromethyl)-1H-benzo[d]imidazole-5-carboxamide] | < 100 | > 1000
CCc1nc2cc(C(=O)NCc3ccc(S(=O)(=O)CC)cc3)ccc2n1[C@@H](C)c1cccc2c1OC(F)(F)O2 [I-125.1, (S)-1-(1-(2,2-difluorobenzo[d][1,3]dioxol-4-yl)ethyl)-2-ethyl-N-(4-(ethylsulfonyl)benzyl)-1H-benzo[d]imidazole-5-carboxamide] | < 100 | > 1000
CCc1nc2cc(C(=O)NCc3ccc(S(=O)(=O)CC)cc3)ccc2n1[C@H](C)c1cccc2c1OC(F)(F)O2 [I-125.2, (R)-1-(1-(2,2-difluorobenzo[d][1,3]dioxol-4-yl)ethyl)-2-ethyl-N-(4-(ethylsulfonyl)benzyl)-1H-benzo[d]imidazole-5-carboxamide] | < 100 | < 100
CCS(=O)(=O)c1ccc(CNC(=O)c2ccc3c(c2)nc(C(F)(F)F)n3Cc2cccc3c2OC(F)(F)O3)c(O)c1 [I-126, 1-((2,2-difluorobenzo[d][1,3]dioxol-4-yl)methyl)-N-(4-(ethylsulfonyl)-2-hydroxybenzyl)-2-(trifluoromethyl)-1H-benzo[d]imidazole-5-carboxamide] | < 100 | < 100
COC(=O)CS(=O)(=O)N1CCC(CNC(=O)c2ccc3c(c2)nc(C(F)(F)F)n3Cc2cccc3[nH]ncc23)CC1 [I-127, methyl 2-((4-((1-((1H-indazol-4-yl)methyl)-2-(trifluoromethyl)-1H-benzo[d]imidazole-5-carboxamido)methyl)piperidin-1-yl)sulfonyl)acetate] | < 100 | < 100
CCS(=O)(=O)c1ccc(CNC(=O)c2ccc3c(c2)nc(C(F)(F)F)n3Cc2cc(OC)cc(OC)c2)nc1 [I-128, 1-(3,5-dimethoxybenzyl)-N-((5-(ethylsulfonyl)pyridin-2-yl)methyl)-2-(trifluoromethyl)-1H-benzo[d]imidazole-5-carboxamide] | < 100 | > 1000
CCS(=O)(=O)c1ccc([C@H](CO)NC(=O)c2ccc3c(c2)nc(C(F)(F)F)n3Cc2cccc3c2OC(F)(F)O3)nc1 [I-130.1, (R)-1-((2,2-difluorobenzo[d][1,3]dioxol-4-yl)methyl)-N-(1-(5-(ethylsulfonyl)pyridin-2-yl)-2-hydroxyethyl)-2-(trifluoromethyl)-1H-benzo[d]imidazole-5-carboxamide] | < 100 | < 100
CCS(=O)(=O)c1ccc([C@@H](CO)NC(=O)c2ccc3c(c2)nc(C(F)(F)F)n3Cc2cccc3c2OC(F)(F)O3)nc1 [I-130.2, (S)-1-((2,2-difluorobenzo[d][1,3]dioxol-4-yl)methyl)-N-(1-(5-(ethylsulfonyl)pyridin-2-yl)-2-hydroxyethyl)-2-(trifluoromethyl)-1H-benzo[d]imidazole-5-carboxamide] | < 100 | < 100
CCS(=O)(=O)c1ccc([C@H](CO)NC(=O)c2ccc3c(c2)nc(C(F)F)n3Cc2cccc3c2OC(F)(F)O3)nc1 [I-131.1, (R)-1-((2,2-difluorobenzo[d][1,3]dioxol-4-yl)methyl)-2-(difluoromethyl)-N-(1-(5-(ethylsulfonyl)pyridin-2-yl)-2-hydroxyethyl)-1H-benzo[d]imidazole-5-carboxamide] | < 100 | < 100
CCS(=O)(=O)c1ccc([C@@H](CO)NC(=O)c2ccc3c(c2)nc(C(F)F)n3Cc2cccc3c2OC(F)(F)O3)nc1 [I-131.2, (S)-1-((2,2-difluorobenzo[d][1,3]dioxol-4-yl)methyl)-2-(difluoromethyl)-N-(1-(5-(ethylsulfonyl)pyridin-2-yl)-2-hydroxyethyl)-1H-benzo[d]imidazole-5-carboxamide] | < 100 | 100 to 1000
CCS(=O)(=O)c1ccc([C@H](CO)NC(=O)c2ccc3c(c2)nc(C2CCC2)n3Cc2cccc3c2OC(F)(F)O3)nc1 [I-132.1, (R)-2-cyclobutyl-1-((2,2-difluorobenzo[d][1,3]dioxol-4-yl)methyl)-N-(1-(5-(ethylsulfonyl)pyridin-2-yl)-2-hydroxyethyl)-1H-benzo[d]imidazole-5-carboxamide] | < 100 | < 100
CCS(=O)(=O)c1ccc([C@@H](CO)NC(=O)c2ccc3c(c2)nc(C2CCC2)n3Cc2cccc3c2OC(F)(F)O3)nc1 [I-132.2, (S)-2-cyclobutyl-1-((2,2-difluorobenzo[d][1,3]dioxol-4-yl)methyl)-N-(1-(5-(ethylsulfonyl)pyridin-2-yl)-2-hydroxyethyl)-1H-benzo[d]imidazole-5-carboxamide] | < 100 | < 100
CCS(=O)(=O)c1ccc([C@H](CO)NC(=O)c2ccc3c(c2)nc(C2CC2)n3Cc2cccc3c2OC(F)(F)O3)nc1 [I-133.1, (R)-2-cyclopropyl-1-((2,2-difluorobenzo[d][1,3]dioxol-4-yl)methyl)-N-(1-(5-(ethylsulfonyl)pyridin-2-yl)-2-hydroxyethyl)-1H-benzo[d]imidazole-5-carboxamide] | < 100 | < 100
CCS(=O)(=O)c1ccc([C@H](CO)NC(=O)c2ccc3c(c2)nc(C2(F)CC2)n3Cc2cccc3c2OC(F)(F)O3)nc1 [I-134.1, (R)-1-((2,2-difluorobenzo[d][1,3]dioxol-4-yl)methyl)-N-(1-(5-(ethylsulfonyl)pyridin-2-yl)-2-hydroxyethyl)-2-(1-fluorocyclopropyl)-1H-benzo[d]imidazole-5-carboxamide] | < 100 | < 100
CCS(=O)(=O)c1ccc([C@@H](CO)NC(=O)c2ccc3c(c2)nc(C2(F)CC2)n3Cc2cccc3c2OC(F)(F)O3)nc1 [I-134.2, (S)-1-((2,2-difluorobenzo[d][1,3]dioxol-4-yl)methyl)-N-(1-(5-(ethylsulfonyl)pyridin-2-yl)-2-hydroxyethyl)-2-(1-fluorocyclopropyl)-1H-benzo[d]imidazole-5-carboxamide] | < 100 | < 100
CCS(=O)(=O)c1ccc(CNC(=O)c2ccc3c(c2)nc(C(F)(F)F)n3Cc2cccc(OC)c2F)cc1 [I-136, N-(4-(ethylsulfonyl)benzyl)-1-(2-fluoro-3-methoxybenzyl)-2-(trifluoromethyl)-1H-benzo[d]imidazole-5-carboxamide] | < 100 | < 100
